Data reported in PubChem BioAssay AID1963834 (Molecular Pharmacology Branch, DTP, NCI, 2024).

Tested on: 873145-292-R-J1-PDC complex spheroid viability
Experiment: Anticancer human tumor 873145-292-R-J1-PDC patient-derived renal clear cell carcinoma cell line growth inhibition [POLQ]
Conditions: for IC50: curve of first compound; for viability, T/C: stronger effect = lower value; active = viability on the fitted dose curve at most 10% of control; inactive = the rest
In short: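 PDC + HUVEC + MSC complex spheroids; POLQ inhibitors ± partner drugs; top conc. at/near clinical Cmax, else 10 microM (SN-38 1 microM), half-log dilutions; 37 degrees C, 5% CO2.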

[1] = second compound 0.0316 µM, first compound 0.0316 µM
[2] = second compound 0.0316 µM, first compound 0.1 µM
[3] = second compound 0.1 µM, first compound 0.0316 µM
[4] = second compound 0.1 µM, first compound 0.1 µM
[5] = second compound 0.316 µM, first compound 0.0316 µM
[6] = second compound 0.316 µM, first compound 0.1 µM
[7] = second compound 1 µM, first compound 0.0316 µM
[8] = second compound 1 µM, first compound 0.1 µM
[9] = second compound 3.16 µM, first compound 0.0316 µM
[10] = second compound 3.16 µM, first compound 0.1 µM
[11] = second compound 10 µM, first compound 0.0316 µM
[12] = second compound 10 µM, first compound 0.1 µM
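Also: spheroids exposed to compounds for 7 days before viability readout.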
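For viability, T/C in this document: luminescence signal used as surrogate for viable cell content; 100% = DMSO vehicle control viability.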

CC[C@@]1(O)C(=O)OCc2c1cc1n(c2=O)Cc2cc3c(CN(C)C)c(O)ccc3nc2-1 + Nc1ccc(C#CCN(C(=O)Cc2ncc(C(F)(F)F)cc2C(F)(F)F)c2ccc(F)cc2)nn1
inactive: viability, T/C (second compound 0.0316 µM, first compound 0.000316 µM) 109% | viability, T/C (second compound 0.0316 µM, first compound 0.001 µM) 116% | viability, T/C (second compound 0.0316 µM, first compound 0.00316 µM) 96.9% | viability, T/C (second compound 0.0316 µM, first compound 0.01 µM) 92% | viability, T/C [1] 95.8% | viability, T/C [2] 56.4% | viability, T/C (second compound 0.1 µM, first compound 0.000316 µM) 112% | viability, T/C (second compound 0.1 µM, first compound 0.001 µM) 107% | viability, T/C (second compound 0.1 µM, first compound 0.00316 µM) 107% | viability, T/C (second compound 0.1 µM, first compound 0.01 µM) 107% | viability, T/C [3] 99.3% | viability, T/C [4] 52.7% | viability, T/C (second compound 0.316 µM, first compound 0.000316 µM) 104% | viability, T/C (second compound 0.316 µM, first compound 0.001 µM) 105% | viability, T/C (second compound 0.316 µM, first compound 0.00316 µM) 92% | viability, T/C (second compound 0.316 µM, first compound 0.01 µM) 111% | viability, T/C [5] 95.5% | viability, T/C [6] 53.4% | viability, T/C (second compound 1 µM, first compound 0.000316 µM) 115% | viability, T/C (second compound 1 µM, first compound 0.001 µM) 99.2% | viability, T/C (second compound 1 µM, first compound 0.00316 µM) 98.6% | viability, T/C (second compound 1 µM, first compound 0.01 µM) 91% | viability, T/C [7] 106% | viability, T/C [8] 59.6% | viability, T/C (second compound 3.16 µM, first compound 0.000316 µM) 114% | viability, T/C (second compound 3.16 µM, first compound 0.001 µM) 112% | viability, T/C (second compound 3.16 µM, first compound 0.00316 µM) 112% | viability, T/C (second compound 3.16 µM, first compound 0.01 µM) 102% | viability, T/C [9] 93.5% | viability, T/C [10] 63.9% | viability, T/C (second compound 10 µM, first compound 0.000316 µM) 109% | viability, T/C (second compound 10 µM, first compound 0.001 µM) 111% | viability, T/C (second compound 10 µM, first compound 0.00316 µM) 124% | viability, T/C (second compound 10 µM, first compound 0.01 µM) 119% | viability, T/C [11] 103% | viability, T/C [12] 63.2%
> 0.1 µM: IC50 (second compound 0.0316 µM) | IC50 (second compound 0.1 µM) | IC50 (second compound 0.316 µM) | IC50 (second compound 1 µM) | IC50 (second compound 3.16 µM) | IC50 (second compound 10 µM)

O=c1[nH]cc(F)c(=O)[nH]1 + Nc1ccc(C#CCN(C(=O)Cc2ncc(C(F)(F)F)cc2C(F)(F)F)c2ccc(F)cc2)nn1
> 10 µM: IC50 (second compound 0.0316 µM) | IC50 (second compound 0.1 µM) | IC50 (second compound 0.316 µM) | IC50 (second compound 1 µM) | IC50 (second compound 3.16 µM) | IC50 (second compound 10 µM)
inactive: viability, T/C [1] 109% | viability, T/C [2] 103% | viability, T/C (second compound 0.0316 µM, first compound 0.316 µM) 101% | viability, T/C (second compound 0.0316 µM, first compound 1 µM) 91.1% | viability, T/C (second compound 0.0316 µM, first compound 3.16 µM) 98.5% | viability, T/C (second compound 0.0316 µM, first compound 10 µM) 103% | viability, T/C [3] 104% | viability, T/C [4] 117% | viability, T/C (second compound 0.1 µM, first compound 0.316 µM) 101% | viability, T/C (second compound 0.1 µM, first compound 1 µM) 105% | viability, T/C (second compound 0.1 µM, first compound 3.16 µM) 98.3% | viability, T/C (second compound 0.1 µM, first compound 10 µM) 93.7% | viability, T/C [5] 105% | viability, T/C [6] 105% | viability, T/C (second compound 0.316 µM, first compound 0.316 µM) 87.6% | viability, T/C (second compound 0.316 µM, first compound 1 µM) 98% | viability, T/C (second compound 0.316 µM, first compound 3.16 µM) 103% | viability, T/C (second compound 0.316 µM, first compound 10 µM) 97.7% | viability, T/C [7] 113% | viability, T/C [8] 107% | viability, T/C (second compound 1 µM, first compound 0.316 µM) 102% | viability, T/C (second compound 1 µM, first compound 1 µM) 90.1% | viability, T/C (second compound 1 µM, first compound 3.16 µM) 114% | viability, T/C (second compound 1 µM, first compound 10 µM) 95.2% | viability, T/C [9] 118% | viability, T/C [10] 101% | viability, T/C (second compound 3.16 µM, first compound 0.316 µM) 112% | viability, T/C (second compound 3.16 µM, first compound 1 µM) 105% | viability, T/C (second compound 3.16 µM, first compound 3.16 µM) 105% | viability, T/C (second compound 3.16 µM, first compound 10 µM) 105% | viability, T/C [11] 107% | viability, T/C [12] 125% | viability, T/C (second compound 10 µM, first compound 0.316 µM) 132% | viability, T/C (second compound 10 µM, first compound 1 µM) 116% | viability, T/C (second compound 10 µM, first compound 3.16 µM) 105% | viability, T/C (second compound 10 µM, first compound 10 µM) 112%
